From PubChem BioAssay AID1963973 (Molecular Pharmacology Branch, DTP, NCI, 2024)

Tested on: 883617-216-R-J1-PDC tumor spheroids, viability
Assay: Anticancer human tumor 883617-216-R-J1-PDC patient-derived bladder carcinoma cell line growth inhibition [PI3K]
Details: spheroids with HUVEC and MSC; for IC50: curve of first compound; for viability, T/C: stronger effect = lower value
Method in brief: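 Multi-cell spheroids combine tumor cells with HUVEC and human MSCs, treated with targeted agents alone or with inavolisib, alpelisib, duvelisib or copanlisib. Concentrations fall in half-log steps from at or near clinical Cmax, or from 10 microM where Cmax is unknown; viability read-out.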

[1] = second compound 0.0316 µM, first compound 0.0316 µM
[2] = second compound 0.0316 µM, first compound 0.1 µM
[3] = second compound 0.1 µM, first compound 0.0316 µM
[4] = second compound 0.1 µM, first compound 0.1 µM
[5] = second compound 0.316 µM, first compound 0.0316 µM
[6] = second compound 0.316 µM, first compound 0.1 µM
[7] = second compound 1 µM, first compound 0.0316 µM
[8] = second compound 1 µM, first compound 0.1 µM
[9] = second compound 3.16 µM, first compound 0.0316 µM
[10] = second compound 3.16 µM, first compound 0.1 µM
[11] = second compound 10 µM, first compound 0.0316 µM
[12] = second compound 10 µM, first compound 0.1 µM
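Note: spheroids exposed to agents for 7 days before the viability read.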

**Q.** With CNC(=O)c1ccc(N2C(=S)N(c3ccc(C#N)c(C(F)(F)F)c3)C(=O)C2(C)C)cc1F + CC(Nc1ncnc2nc[nH]c12)c1cc2cccc(Cl)c2c(=O)n1-c1ccccc1 as the compound, how does the IC50 (second compound 0.0316 µM) read?
**A.** > 10000 nM

**Q.** What about the IC50 (second compound 0.1 µM) of the same compound?
**A.** > 10000 nM

**Q.** What about the IC50 (second compound 0.316 µM) of the same compound?
**A.** > 10000 nM

**Q.** And the IC50 (second compound 1 µM)?
**A.** > 10000 nM

**Q.** And the IC50 (second compound 3.16 µM)?
**A.** > 10000 nM

**Q.** And the IC50 (second compound 10 µM)?
**A.** 3250 nM

**Q.** And the viability, T/C [1]?
**A.** 91.8%

**Q.** What about the viability, T/C [2] of the same compound?
**A.** 94.3%

**Q.** And the viability, T/C (second compound 0.0316 µM, first compound 0.316 µM)?
**A.** 92.8%

**Q.** And the viability, T/C (second compound 0.0316 µM, first compound 1 µM)?
**A.** 96.2%

**Q.** What about the viability, T/C (second compound 0.0316 µM, first compound 3.16 µM) of the same compound?
**A.** 83.9%

**Q.** And the viability, T/C (second compound 0.0316 µM, first compound 10 µM)?
**A.** 89%

**Q.** And the viability, T/C [3]?
**A.** 89.4%

**Q.** What about the viability, T/C [4] of the same compound?
**A.** 93.2%

**Q.** What about the viability, T/C (second compound 0.1 µM, first compound 0.316 µM) of the same compound?
**A.** 90.2%

**Q.** And the viability, T/C (second compound 0.1 µM, first compound 1 µM)?
**A.** 103%

**Q.** And the viability, T/C (second compound 0.1 µM, first compound 3.16 µM)?
**A.** 89.8%

**Q.** And the viability, T/C (second compound 0.1 µM, first compound 10 µM)?
**A.** 67%

**Q.** And the viability, T/C [5]?
**A.** 88.1%

**Q.** And the viability, T/C [6]?
**A.** 98.9%

**Q.** What about the viability, T/C (second compound 0.316 µM, first compound 0.316 µM) of the same compound?
**A.** 84.9%

**Q.** What about the viability, T/C (second compound 0.316 µM, first compound 1 µM) of the same compound?
**A.** 88.6%

**Q.** And the viability, T/C (second compound 0.316 µM, first compound 3.16 µM)?
**A.** 82.7%

**Q.** And the viability, T/C (second compound 0.316 µM, first compound 10 µM)?
**A.** 70.2%

**Q.** What about the viability, T/C [7] of the same compound?
**A.** 84.5%

**Q.** What about the viability, T/C [8] of the same compound?
**A.** 90.8%

**Q.** And the viability, T/C (second compound 1 µM, first compound 0.316 µM)?
**A.** 83%

**Q.** What about the viability, T/C (second compound 1 µM, first compound 1 µM) of the same compound?
**A.** 89.8%

**Q.** And the viability, T/C (second compound 1 µM, first compound 3.16 µM)?
**A.** 73.3%

**Q.** And the viability, T/C (second compound 1 µM, first compound 10 µM)?
**A.** 79.7%

**Q.** And the viability, T/C [9]?
**A.** 70.6%

**Q.** What about the viability, T/C [10] of the same compound?
**A.** 78.5%

**Q.** What about the viability, T/C (second compound 3.16 µM, first compound 0.316 µM) of the same compound?
**A.** 72.7%

**Q.** And the viability, T/C (second compound 3.16 µM, first compound 1 µM)?
**A.** 76.4%

**Q.** What about the viability, T/C (second compound 3.16 µM, first compound 3.16 µM) of the same compound?
**A.** 69.2%

**Q.** What about the viability, T/C (second compound 3.16 µM, first compound 10 µM) of the same compound?
**A.** 55.6%

**Q.** What about the viability, T/C [11] of the same compound?
**A.** 50.8%

**Q.** What about the viability, T/C [12] of the same compound?
**A.** 53.1%

**Q.** And the viability, T/C (second compound 10 µM, first compound 0.316 µM)?
**A.** 50.5%

**Q.** What about the viability, T/C (second compound 10 µM, first compound 1 µM) of the same compound?
**A.** 47.4%

**Q.** What about the viability, T/C (second compound 10 µM, first compound 3.16 µM) of the same compound?
**A.** 50.6%

**Q.** What about the viability, T/C (second compound 10 µM, first compound 10 µM) of the same compound?
**A.** 38.9%

**Q.** Which IC50 (second compound 0.0316 µM) does the source give for Cn1ncnc1[C@H]1c2n[nH]c(=O)c3cc(F)cc(c23)N[C@@H]1c1ccc(F)cc1 + CC(Nc1ncnc2nc[nH]c12)c1cc2cccc(Cl)c2c(=O)n1-c1ccccc1 here?
**A.** > 100 nM

**Q.** And the IC50 (second compound 0.1 µM)?
**A.** > 100 nM

**Q.** And the IC50 (second compound 0.316 µM)?
**A.** > 100 nM

**Q.** What about the IC50 (second compound 1 µM) of the same compound?
**A.** > 100 nM

**Q.** What about the IC50 (second compound 3.16 µM) of the same compound?
**A.** 72.3 nM

**Q.** And the IC50 (second compound 10 µM)?
**A.** 0.867 nM

**Q.** What about the viability, T/C (second compound 0.0316 µM, first compound 0.000316 µM) of the same compound?
**A.** 99%

**Q.** And the viability, T/C (second compound 0.0316 µM, first compound 0.001 µM)?
**A.** 106%

**Q.** What about the viability, T/C (second compound 0.0316 µM, first compound 0.00316 µM) of the same compound?
**A.** 72.5%

**Q.** And the viability, T/C (second compound 0.0316 µM, first compound 0.01 µM)?
**A.** 86.4%

**Q.** And the viability, T/C [1]?
**A.** 76.8%

**Q.** What about the viability, T/C [2] of the same compound?
**A.** 51%

**Q.** What about the viability, T/C (second compound 0.1 µM, first compound 0.000316 µM) of the same compound?
**A.** 108%

**Q.** And the viability, T/C (second compound 0.1 µM, first compound 0.001 µM)?
**A.** 101%

**Q.** And the viability, T/C (second compound 0.1 µM, first compound 0.00316 µM)?
**A.** 72.6%

**Q.** And the viability, T/C (second compound 0.1 µM, first compound 0.01 µM)?
**A.** 66.1%

**Q.** And the viability, T/C [3]?
**A.** 74.9%

**Q.** And the viability, T/C [4]?
**A.** 67%

**Q.** And the viability, T/C (second compound 0.316 µM, first compound 0.000316 µM)?
**A.** 82.4%

**Q.** What about the viability, T/C (second compound 0.316 µM, first compound 0.001 µM) of the same compound?
**A.** 82.6%

**Q.** What about the viability, T/C (second compound 0.316 µM, first compound 0.00316 µM) of the same compound?
**A.** 85.1%

**Q.** What about the viability, T/C (second compound 0.316 µM, first compound 0.01 µM) of the same compound?
**A.** 70.8%

**Q.** And the viability, T/C [5]?
**A.** 54.5%

**Q.** What about the viability, T/C [6] of the same compound?
**A.** 65.4%

**Q.** What about the viability, T/C (second compound 1 µM, first compound 0.000316 µM) of the same compound?
**A.** 84.6%

**Q.** What about the viability, T/C (second compound 1 µM, first compound 0.001 µM) of the same compound?
**A.** 80.1%

**Q.** And the viability, T/C (second compound 1 µM, first compound 0.00316 µM)?
**A.** 66.1%

**Q.** And the viability, T/C (second compound 1 µM, first compound 0.01 µM)?
**A.** 62%

**Q.** And the viability, T/C [7]?
**A.** 62.5%

**Q.** And the viability, T/C [8]?
**A.** 57.5%

**Q.** What about the viability, T/C (second compound 3.16 µM, first compound 0.000316 µM) of the same compound?
**A.** 81.1%

**Q.** And the viability, T/C (second compound 3.16 µM, first compound 0.001 µM)?
**A.** 71%

**Q.** And the viability, T/C (second compound 3.16 µM, first compound 0.00316 µM)?
**A.** 60.1%

**Q.** And the viability, T/C (second compound 3.16 µM, first compound 0.01 µM)?
**A.** 58.4%

**Q.** And the viability, T/C [9]?
**A.** 56.3%

**Q.** And the viability, T/C [10]?
**A.** 46.6%

**Q.** What about the viability, T/C (second compound 10 µM, first compound 0.000316 µM) of the same compound?
**A.** 61.6%

**Q.** And the viability, T/C (second compound 10 µM, first compound 0.001 µM)?
**A.** 41.7%

**Q.** And the viability, T/C (second compound 10 µM, first compound 0.00316 µM)?
**A.** 45%

**Q.** What about the viability, T/C (second compound 10 µM, first compound 0.01 µM) of the same compound?
**A.** 40.5%

**Q.** And the viability, T/C [11]?
**A.** 35.5%

**Q.** What about the viability, T/C [12] of the same compound?
**A.** 29.4%
